Patent publication US9975906B2, “Tricyclic heterocycle derivatives having HIV replication inhibitory effect” (Shionogi & Co., Ltd., priority 2014, dated 2018)

What was measured:
[1] = system: HIV (HTLV-IIIB strain); experiment: HIV Replication Inhibition Assay; type: cell-based; conditions: Human immunodeficiency virus 1, MT4, 96 h, MT-4 cells, cultured four days, MTT, concentration at which cell cytotoxicity by virus is inhibited 50%
Protocol: HIV (HTLV-IIIB strain) persistent infected human T cell strain Molt-4 clone 8 was cultured in 10% Fetal Bovine Serum-containing RPMI-1640 medium and the supernatant was filtered, then the virus titer was measured and the solution was stored at −80° C. Each anti-human immunodeficiency virus active substance was diluted with the above cultured medium to the designated concentration, which was dispensed into 96 well micro plate by 50 μL. Next, a MT-4 cell suspended liquid was dispensed by 100 μL (2.5×10^4 cells), then the above HIV-containing supernatant diluted with the above cultured medium was added thereto by 50 μl (60 pfu (plaque forming unit)).
The obtained mixture was cultured at 37° C. in CO2 incubator for four days, then 3-(4,5-dimethylthiazole-2-yl)-2,5-diphenyltetrazolynium bromide (MTT) 5 mg/mL in PBS was added to each well by 30 μL, followed by 1 hr-cultivation. In this step, as formazan was precipitated by reduction of MTT in living cells, the cell supernatant was removed from all was by 150 μL, then a 150 μL of solution (10% Triton X-100 and 0.4% (v/v)-HCl containing isopropanol) was added thereto, followed by shaking with a plate mixer, to elute formazan. The formazan was measured with a microreader at OD: 560 nm and 690 nm (reference wavelength) and the result was compared with the reference. EC50 means the compound concentration at which cell cytotoxicity by virus is inhibited 50%.

[2] = target: T1, CYP3A4 (Homo sapiens, UniProt P08684); experiment: CYP3A4 (MDZ) MBI Test; type: in vitro ADME; conditions: pooled human liver microsomes, 10 μmol/L MDZ, pre-reaction 0 or 30 minutes
T1 construct: enzyme, pooled human hepatic microsome 0.2 mg protein/mL; from tissue
T1 sequence (P08684 whole entry): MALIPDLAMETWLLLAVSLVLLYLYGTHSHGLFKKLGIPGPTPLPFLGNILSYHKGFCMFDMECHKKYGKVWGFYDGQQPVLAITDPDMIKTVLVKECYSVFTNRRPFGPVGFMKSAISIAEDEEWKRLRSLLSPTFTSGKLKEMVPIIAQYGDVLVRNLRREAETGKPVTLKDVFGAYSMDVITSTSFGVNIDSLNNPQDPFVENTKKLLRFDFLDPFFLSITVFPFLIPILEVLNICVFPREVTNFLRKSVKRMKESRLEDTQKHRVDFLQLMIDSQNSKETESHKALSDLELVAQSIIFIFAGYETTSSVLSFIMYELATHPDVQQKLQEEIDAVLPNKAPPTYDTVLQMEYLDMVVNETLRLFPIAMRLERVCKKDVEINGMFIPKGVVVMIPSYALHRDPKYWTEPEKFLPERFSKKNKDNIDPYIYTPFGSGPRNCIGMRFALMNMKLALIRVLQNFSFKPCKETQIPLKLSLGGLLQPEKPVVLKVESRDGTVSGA
Protocol: CYP3A4 (MDZ) MBI test is a test of investigating mechanism based inhibition (MBI) ability on CYP3A4 inhibition of a compound by enhancement of a metabolism reaction. CYP3A4 inhibition is evaluated using 1-hydroxylation reaction of midazolam (MDZ) by pooled human liver microsomes as an index.
The reaction conditions are as follows: substrate, 10 μmol/L MDZ; pre-reaction time, 0 or 30 minutes; substrate reaction time, 2 minutes; reaction temperature, 37° C.; protein content of pooled human liver microsomes, at pre-reaction time 0.5 mg/mL, at reaction time 0.05 mg/mL (at 10-fold dilution); concentrations of the compound of the present invention, 1, 5, 10, 20 μmol/L (four points).
Pooled human liver microsomes in K-Pi buffer (pH 7.4) and a solution of the compound of the present invention as a pre-reaction solution were added to a 96-well plate at the composition of the pre-reaction. […] After centrifuged at 3000 rpm for 15 minutes, 1-hydroxymidazolam in the supernatant was quantified by LC/MS/MS.
The sample adding DMSO to a reaction system instead of a solution of the compound of the present invention is adopted as a control (100%) because DMSO is used as a solvent to dissolve the compound of the present invention. […] Shifted IC value is calculated as “IC of preincubation at 0 min/IC of preincubation at 30 min”. […]

`Cc1ccc(-c2c([C@H](OC(C)(C)C)C(=O)O)c(C)c3c4c2cc(-c2ccnc(-c5ccc6c(cnn6C)c5)c2)n4CCN3CCN(C)C)cc1` [Compound I-034] was tested, and the EC50 [1] was 2.4 nM and the “CYP3A4 (MDZ) MBI (shifted IC)” value [2] was “(−) (When a shifted IC is 1.0 or less, this is defined as negative)”.
